The values that follow come from BindingDB's records for doi:10.1021/jm991008q (1999).

Structures are written as SMILES.

Broadly, the Ki is the equilibrium dissociation constant of an inhibitor or competing ligand from its target.

In experiment [1] the target is Ornithine carbamoyltransferase (Streptococcus/Enterococcus faecalis). The experiment is described as follows: Binding affinity against ornithine transcarbamoylase (OTC) produced by Streptococcus faecalis The buffer taken for this study is 50 mM maleate, 0.5 mM EDTA at pH 6.0.
The target is the same in experiment [2]. The experiment is described as follows: Binding affinity against ornithine transcarbamoylase (OTC) produced by Streptococcus faecalis The buffer taken for this study is 50 mM Tris.HCl, 0.5 mM EDTA at pH 7.0.
Experiment [3] has the same target. The experiment is described as follows: Binding affinity against ornithine transcarbamoylase (OTC) produced by Streptococcus faecalis The buffer taken for this study is 50 mM Tris.HCl, 0.5 mM EDTA at pH 8.0.

Regarding `N[C@@H](CCCNCP(=O)(O)CP(=O)(O)O)C(=O)O` [2-Amino-5-[(hydroxy-phosphonomethyl-phosphinoylmethyl)-amino]-pentanoic acid], the inhibition constant Ki in experiment [1] was found to be 660 µM; in experiment [2], 750 µM; in experiment [3] it was 1900 µM.

As to `CC(C)(C)OC(=O)N[C@@H](CCCNCP(=O)(O)CP(=O)(O)O)C(=O)O` [(2S)-2-[(tert-butoxycarbonyl)amino]-5-[({[(hydroxyphosphinato)methyl]phosphinato}methyl)ammonio]pentanoate], the Ki in experiment [1] is more than 20000 µM; in experiment [2], 1000 µM; in experiment [3], 2000 µM.

Take `N[C@@H](CCNCP(=O)(O)CP(=O)(O)O)C(=O)O` [(2S)-2-ammonio-4-[({[(hydroxyphosphinato)methyl]phosphinato}methyl)ammonio]butanoate]: the Ki in experiment [1] was more than 20000 µM; in experiment [2], 2300 µM; in experiment [3] it was 3200 µM.
